Assay results: patent US20240294499A1, “TARGETED PROTEIN DEGRADATION USING BIFUNCTIONAL COMPOUNDS THAT BIND UBIQUITIN LIGASE AND TARGET MCL-1 PROTEIN” (Captor Therapeutics S.A., priority 2021, published 2024)

Columns and labels:
Assay type in all cases: cell-based
MV-4-11 cells = test: Cell viability assay (CellTiter-Glo), MV-4-11; settings: Homo sapiens, MV4-11, 24 hours incubation, 1% FBS, read-out: Average pIC50 by molecule MV-4-11 (converted)
Procedure, shortened: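 OPM-2, MV-4-11 and ARH-77 cells were grown in medium with 1% FBS and treated with compound in 1/3 dilutions from 30 uM (9–12 points, 0.5% DMSO). Viability was read by CellTiter-Glo luminescence after 24 hours and normalized to DMSO control.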

MCL-1 protein [1] = molecular target: T1, MCL-1 protein (Homo sapiens, UniProt Q07820); test: OPM-2 cells: MCL-1 protein degradation, Western blot; set-up: endogenous in cells; host or cells: OPM-2; settings: OPM-2 cell line, 6 h treatment, 100 nM compound, vs DMSO
T1 sequence (Q07820 whole entry): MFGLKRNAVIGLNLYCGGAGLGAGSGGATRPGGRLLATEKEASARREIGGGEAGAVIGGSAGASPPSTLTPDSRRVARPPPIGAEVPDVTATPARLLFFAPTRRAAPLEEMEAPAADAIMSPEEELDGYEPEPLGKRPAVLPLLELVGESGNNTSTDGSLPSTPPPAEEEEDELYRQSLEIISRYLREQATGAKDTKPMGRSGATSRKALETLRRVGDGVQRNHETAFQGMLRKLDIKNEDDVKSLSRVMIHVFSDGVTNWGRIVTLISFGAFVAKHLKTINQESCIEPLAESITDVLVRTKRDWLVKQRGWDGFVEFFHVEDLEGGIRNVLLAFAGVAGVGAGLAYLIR
Description: The effect of various compounds of the invention and the reference compounds on MCL-1 protein degradation in the OPM-2 cell line was investigated, using the degradation assay protocol below.
OPM-2 cells were maintained in RPMI-1640 medium, supplemented with penicillin/streptomycin and 10% Fetal Bovine Serum (FBS). During the treatment, FBS concentration was reduced to 1%.
Compound stocks were pre-diluted in DMSO and added directly to the cells growth medium (final DMSO concentration: 0.5%).
OPM-2 cells were collected, centrifuged (250 rcf, 5 min), resuspended in a growth medium containing 1% FBS and counted. The cell suspension was then adjusted to 1×10^6 cell/ml using a growth medium containing 1% FBS. Afterwards, 0.5×10^6 cells were seeded on 24-well plates in 0.5 mL of medium per well. Immediately after seeding cells, compounds in appropriate concentrations were added to the cell culture medium.
Following the treatment with the compounds, cells were collected from the plates and suspended in a lysis buffer (2% SDS, 50 mM Tris, pH 8.0, 100 U/ml Pierce Universal Nuclease for Cell Lysis, complete EDTA-free Protease Inhibitor Cocktail) and incubated on ice for 45 min. The amount of protein was determined via BCA assay, and the equal quantity of each sample was loaded on the precast gel for the protein separation. Following the electrophoresis and transfer to the membrane, the membrane was stained with Ponceau (0.1% (w/v) Ponceau in 5% acetic acid). After total protein detection, the stain was washed out using TBST. After the antibody staining for MCL-1 and α-tubulin, the membranes were washed and signals developed.
Densitometric values for MCL-1 were normalized to total protein level (the Ponceau Staining). [%] of protein reduction is calculated in comparison to the cells treated with DMSO, which stand for 0%.
The results for the 6 h treatment with 100 nM compounds are shown in Table 9, using the following labels: • <30% for 0-29% of MCL-1 protein reduction, • ≥30% for 30-49% of MCL-1 protein reduction, • ≥50% for 50-100% of MCL-1 protein reduction.

MCL-1 protein [2] = molecular target: T1, MCL-1 protein; test: Dose-dependent MCL-1 protein degradation and induction of apoptosis in cancer cells, Western blot; set-up: endogenous in cells; host or cells: OPM-2, MV-4-11, DMS 114; settings: for degradation of MCL-1 protein and apoptosis of OPM2 cells compared to dMCL1-2 and C3: FIG. 2 and FIG. 3
Protocol: The experiments were performed as described for the “OPM-2 cells: MCL-1 protein degradation, Western blot” and “DMS 114 cells: MCL-1 protein degradation, Western blot”.
In addition to MCL-1 and α-Tubulin, PARP and cleaved caspase-3 were detected to monitor apoptosis.
FIG. 2 presents the results of MCL-1 protein degradation and induction of apoptosis for the OPM-2 cells treated with 204 or 215 at 0.01, 0.1 or 1 μM concentration for 6 hours or 24 hours, as indicated.
FIG. 3A presents the results of MCL-1 protein degradation and induction of apoptosis for the OPM-2 cells treated with 204 and control compounds dMCL1-2 (Papatzimas et al., J. Med. Chem. 2019, 62, 11, 5522-5540) at 0.01, 0.03, 0.1, 0.3 or 1 μM concentration for 3 hours, 6 hours or 24 hours, as indicated.
FIG. 3B presents the results of MCL-1 protein degradation and induction of apoptosis for the MV-4-11 cells treated with 204 and control compounds C3 (Wang Z et al., J. Med. Chem. 2019, 62, 17, 8152-8163) at 0.1, 1 or 10 μM concentration for 24 hours, as indicated.
FIG. 3C presents the results of MCL-1 protein degradation and induction of apoptosis for the OPM-2 cells treated with 220, 268, 346 and control compounds dMCL1-2 at 0.03, 0.1, 0.3, 1 μM concentration for 6 hours, as indicated.
FIG. 3D presents the results of MCL-1 protein degradation and induction of apoptosis for the OPM-2 cells treated with 220, 342 at 0.1, 1, 10 μM concentration for 6 hours, as indicated.
FIG. 3E presents the results of MCL-1 protein degradation and induction of apoptosis for the DMS 114 cells treated with 204, 220, 268, 346 at 0.1, 1, 10 μM concentration for 6 hours, as indicated.

| IC50 (MV-4-11 cells) [nM] | Western blot, % of protein reduction (MCL-1 protein [1]) [%] | degradation of MCL-1 protein and apoptosis of OPM2 cells compared to dMCL1-2 and C3 (MCL-1 protein [2]) | MCL-1 protein degradation and induction of apoptosis compared with control compounds (MCL-1 protein [2]; OPM-2 cells vs dMCL1-2, MV-4-11 cells vs C3 (FIG. 3A, 3B)) | Structure (SMILES) |
| --- | --- | --- | --- | --- |
| – | ≥50 | improved potency | – | Cc1nn(C)c(C)c1-c1c(Cl)ccc2c(CCCOc3cccc4cc(F)ccc34)c(C(=O)O)n(CCN3CCN(C(=O)Cn4c(C)nc5c(C(=O)NC6CCC(=O)NC6=O)cccc54)CC3)c12 (stereo not drawn) [Compound 268, 6-chloro-1-{2-[4-(2-{4-[(2,6-dioxopiperidin-3-yl)carbamoyl]-2-methyl-1H-1,3-benzodiazol-1-yl}acetyl)piperazin-1-yl]ethyl}-3-{3-[(6-fluoronaphthalen-1-yl)oxy]propyl}-7-(1,3,5-trimethyl-1H-pyrazol-4-yl)-1H-indole-2-carboxylic acid] |
| ≤ 100 | ≥50 | improved potency | – | Cc1nn2c(c1-c1c(Cl)ccc3c(CCCOc4cccc5cc(F)ccc45)c(C(=O)O)n(CCN4CCN(C(=O)COc5cccc6c5CN(C5CCC(=O)NC5=O)C6=O)CC4)c13)COCC2 (stereo not drawn) [Compound 346, 6-Chloro-1-(2-(4-(2-((2-(2,6-dioxopiperidin-3-yl)-1-oxoisoindolin-4-yl)oxy)acetyl)piperazin-1-yl)ethyl)-3-(3-((6-fluoronaphthalen-1-yl)oxy)propyl)-7-(2-methyl-6,7-dihydro-4H-pyrazolo[5,1-c][1,4]oxazin-3-yl)-1H-indole-2-carboxylic acid] |

Second part, the compound before the results:

| Structure (SMILES) | IC50 (MV-4-11 cells) [nM] | Western blot, % of protein reduction (MCL-1 protein [1]) [%] | degradation of MCL-1 protein and apoptosis of OPM2 cells compared to dMCL1-2 and C3 (MCL-1 protein [2]) | MCL-1 protein degradation and induction of apoptosis compared with control compounds (MCL-1 protein [2]; OPM-2 cells vs dMCL1-2, MV-4-11 cells vs C3 (FIG. 3A, 3B)) |
| --- | --- | --- | --- | --- |
| Cc1nn(C)c(C)c1-c1c(F)ccc2c(CCCOc3cccc4cc(F)ccc34)c(C(=O)O)n(CCN3CCN(C(=O)COc4cccc5c4C(=O)N(C4CCC(=O)NC4=O)C5=O)CC3)c12 (stereo not drawn) [Compound 215, 1-{2-[4-(2-{[2-(2,6-dioxopiperidin-3-yl)-1,3-dioxo-2,3-dihydro-1H-isoindol-4-yl]oxy}acetyl)piperazin-1-yl]ethyl}-6-fluoro-3-{3-[(6-fluoronaphthalen-1-yl)oxy]propyl}-7-(1,3,5-trimethyl-1H-pyrazol-4-yl)-1H-indole-2-carboxylic acid] | ≤ 100 | ≥50 | improved potency | – |
| Cc1nn(C)c(C)c1-c1c(Cl)ccc2c(CCCOc3cccc4ccccc34)c(C(=O)O)n(CCN3CCN(C(=O)COc4cccc5c4C(=O)N(C4CCC(=O)NC4=O)C5=O)CC3)c12 (stereo not drawn) [Compound 204, 6-chloro-1-(2-(4-(2-((2-(2,6-dioxopiperidin-3-yl)-1,3-dioxoisoindolin-4-yl)oxy)acetyl)piperazin-1-yl)ethyl)-3-(3-(naphthalen-1-yloxy)propyl)-7-(1,3,5-trimethyl-1H-pyrazol-4-yl)-1H-indole-2-carboxylic acid] | ≤ 100 | ≥50 | improved potency | more potent |
| Cc1nn(C)c(C)c1-c1c(Cl)ccc2c(CCCOc3cccc4cc(F)ccc34)c(C(=O)O)n(CCN3CCN(C(=O)COc4cccc5c4CN(C4CCC(=O)NC4=O)C5=O)CC3)c12 (stereo not drawn) [Compound 220, 6-chloro-1-{2-[4-(2-{[2-(2,6-dioxopiperidin-3-yl)-1-oxo-2,3-dihydro-1H-isoindol-4-yl]oxy}acetyl)piperazin-1-yl]ethyl}-3-{3-[(6-fluoronaphthalen-1-yl)oxy]propyl}-7-(1,3,5-trimethyl-1H-pyrazol-4-yl)-1H-indole-2-carboxylic acid] | ≤ 31.6 | ≥50 | improved potency | – |
